Results published in PubChem BioAssay (NCI).
Values joined by “and” are separate entries in the source; they are usually repeats but may differ in a detail not shown here. Equal entries are not always repeated.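 Exposure lasted 48 hours, with cells grown in 96-well plates and compounds tested at five concentrations. GI50 = concentration required for 50% inhibition of growth. TGI: total growth inhibition.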

Key:
Experiment in all cases: NCI anticancer screen, dose series, 48 h
SR leukemia = test system: SR leukemia
NCI-H460 lung = test system: NCI-H460 lung
HT29 colon = test system: HT29 colon
HOP-92 NSCLC = test system: HOP-92 NSCLC
SK-OV-3 ovarian = test system: SK-OV-3 ovarian
TK-10 renal = test system: TK-10 renal
A549 NSCLC = test system: A549 NSCLC
U251 CNS = test system: U251 CNS
HCC-2998 colon = test system: HCC-2998 colon
DU-145 prostate = test system: DU-145 prostate

Row | SMILES | TGI (SR leukemia) | TGI (NCI-H460 lung) | TGI (HT29 colon) | TGI (HOP-92 NSCLC) | TGI (SK-OV-3 ovarian) | TGI (TK-10 renal) | TGI (A549 NSCLC) | TGI (U251 CNS) | TGI (HCC-2998 colon) | GI50 (DU-145 prostate) | TGI (DU-145 prostate) | GI50 (NCI-H460 lung) | GI50 (HT29 colon) | GI50 (HOP-92 NSCLC) | GI50 (TK-10 renal) | GI50 (A549 NSCLC) | GI50 (HCC-2998 colon) | GI50 (U251 CNS) | GI50 (SR leukemia) | GI50 (SK-OV-3 ovarian)
1 | C(=N\OCc1ccccc1)/c1ncccc1C1OCCO1 | > 100 µM | > 100 µM | > 100 µM | > 100 µM | > 100 µM | > 100 µM | > 100 µM | > 100 µM |  |  |  |  |  |  |  |  |  |  |  | 
2 | O=C1O/C(=C(\Br)c2cccc3ccccc23)c2ccccc21 | 51.5 µM | > 73 µM | 56.3 µM | > 56.9 µM | > 55.8 µM | > 51.2 µM | 35.9 µM | > 100 µM | > 100 µM |  |  |  |  |  |  |  |  |  |  | 
3 | COc1cc(/C=C2\CC3C4CC=C5C[C@@H](OC(C)=O)CC[C@]5(C)C4CC[C@]3(C)C2=O)ccc1OCCCn1ccnc1 (stereo partly specified) |  | 21.1 µM | > 50 µM | > 50 µM |  | 17.3 µM | 33.9 µM | 15.9 µM | 23 µM | 1.31 µM | 10.2 µM | 9.32 µM | 16 µM | 25.4 µM | 7.08 µM | 13 µM | 14.6 µM | 8.93 µM |  | 
4 | O=C1C[C@@H]2C(COC(=O)c3ccccc3)N(OCc3ccccc3)C[C@@H]2O1 (stereo partly specified) | > 100 µM | > 100 µM | > 100 µM |  | > 100 µM | > 100 µM | > 100 µM | > 100 µM | > 100 µM |  |  |  |  |  |  |  |  |  |  | 
5 | NC(=O)N/N=C/C(/C=N/NC(N)=O)[N+](=O)[O-] |  |  | > 100 µM | > 100 µM | > 100 µM | > 100 µM | > 100 µM |  |  |  |  |  |  |  |  |  |  |  |  | 
6 | CC(=O)OCCOCNC(=S)N/N=C(\C)c1cnc2ccccc2n1 | > 100 µM | > 100 µM | > 100 µM |  | > 100 µM | > 100 µM | > 100 µM | > 100 µM | > 100 µM |  |  |  |  |  |  |  |  |  |  | 
7 | CCCCNN | > 100 µM |  | > 100 µM |  | > 100 µM | > 100 µM | > 100 µM | > 100 µM |  |  | > 100 µM |  |  |  |  |  |  |  |  | 
8 | Cc1sc(C)c(Cc2c(C)sc(C)c2CCl)c1CCl | > 100 µM | > 100 µM | > 100 µM |  | > 100 µM | > 100 µM | > 100 µM | > 100 µM |  | > 100 µM | > 100 µM | > 100 µM | > 100 µM |  | > 100 µM | > 100 µM |  | > 100 µM | > 100 µM | > 100 µM
9 | N#Cc1c(-c2ccccc2)cc(-c2ccc(Nc3nc(Nc4ccc(Cl)cc4)nc(Nc4ccc(Cl)cc4)n3)cc2)nc1N |  | 15.8 µM | 16.5 µM | 3.86 µM | 55 µM | 4.4 µM | > 100 µM | 10.2 µM | 35.5 µM | 4.67 µM | 20.4 µM | 3.47 µM | 3.8 µM | 1.06 µM | 1.89 µM | 11 µM | 7 µM | 2.63 µM |  | 21.3 µM
10 | CO/C1=C\C(C)=C\C(C)C(O)C(C)C/C(C)=C/C=C/C(OC)C(C(C)C(O)C(C)C2(O)CC(O)C(C)C(C(C)C)O2)OC1=O (stereo unspecified) |  |  |  | 0.0225 µM | 33.6 µM | 29.5 µM | 0.0222 µM and 0.0105 µM | 17 µM | 12.2 µM |  |  |  |  |  |  |  |  |  |  | 
11 | CCNC(=O)C#CC(=O)NCC | > 61.4 µM | > 100 µM | > 100 µM | > 100 µM | > 100 µM | > 100 µM | > 100 µM | > 100 µM | > 100 µM |  |  | > 10 µM | > 10 µM | > 10 µM | > 10 µM | > 10 µM | > 10 µM | > 10 µM | > 10 µM | 
12 | Cc1nc2c(n1C(C)(C)C)C(=O)c1ccccc1C2=O | > 100 µM | > 100 µM | > 100 µM | 66.4 µM | > 100 µM | > 100 µM | > 100 µM | > 100 µM | > 100 µM |  |  |  |  |  |  |  |  |  |  | 
13 | COc1ccccc1-c1cc(=O)c2ccccc2[nH]1 | > 100 µM | > 100 µM |  |  | > 100 µM | > 100 µM | > 100 µM | > 100 µM | > 100 µM |  |  |  |  |  |  |  |  |  |  | 
14 | O=C(Nc1ccc(Cl)cc1)c1ccc(NC2=C(Cl)C(=O)N(Cc3ccccc3)C2=O)cc1 |  | > 100 µM | > 100 µM | 25.1 µM | > 100 µM |  | 39.9 µM | 20.4 µM |  | 14.4 µM | 38.6 µM | 25.1 µM | 20 µM | 9.19 µM |  | 16.3 µM |  | 8.07 µM |  | 32.9 µM
15 | CC(C)c1ccc(/C(C(=O)O)=C(\O)C(=O)O)cc1 | > 100 µM | > 100 µM | > 100 µM | > 100 µM | > 100 µM | > 100 µM | > 100 µM | > 100 µM |  |  | > 100 µM |  |  |  |  |  |  |  |  | 
16 | COc1cccc(NC(=O)CC(=O)N2N=C(N(CCC#N)c3ccccc3C)CC2c2ccccc2)c1 (stereo unspecified) | > 100 µM | > 100 µM | > 100 µM | > 100 µM | > 100 µM |  | > 100 µM | > 100 µM | > 100 µM |  |  |  |  |  |  |  |  |  |  | 
17 | O=C(Nc1nc2ccccc2n1Cc1ccccc1)NC12CC3CC(CC(C3)C1)C2 | > 100 µM | > 100 µM | > 100 µM | 83.6 µM | > 100 µM | > 100 µM | > 100 µM | > 100 µM | > 100 µM |  |  |  |  |  |  |  |  |  |  | 
18 | CN1NC2(CCCCC2)ON=C1c1ccccc1 | > 100 µM | > 100 µM | > 100 µM | > 100 µM | > 100 µM | > 100 µM | > 100 µM | > 100 µM |  |  |  |  |  |  |  |  |  |  |  | 
19 | O=C(O)CCCCCOc1cccnc1/C=N/NC1=NCCN1 | > 100 µM | > 100 µM | > 100 µM | > 100 µM | > 100 µM | > 100 µM | > 100 µM | > 100 µM | > 100 µM |  |  |  |  |  |  |  |  |  |  | 
20 | COc1ccc2c(c1OC)C1=C(C2=O)c2cc3c(cc2CCN1)OCO3 | 55 µM | 92.7 µM | 43.3 µM | > 100 µM |  | > 100 µM | > 100 µM |  | 75.5 µM |  |  |  |  |  |  |  |  |  |  | 
21 | CCC(=O)C(C)C1=Nc2nnc(CCCCCCCc3nnc4n3C(=O)C(C(C)C(=O)CC)=N4)n2C1=O (stereo unspecified) | > 100 µM | > 100 µM | > 100 µM | > 100 µM | > 100 µM | > 100 µM | > 100 µM | > 100 µM | > 100 µM |  |  |  |  |  |  |  |  |  |  | 
22 | CN(C)N1C(=O)c2ccccc2NC1c1ccccc1 (stereo unspecified) |  | > 100 µM | > 100 µM | > 100 µM | > 100 µM | > 100 µM | > 100 µM | > 100 µM | > 100 µM |  | > 100 µM |  |  |  |  |  |  |  |  | 
